# Test results published in PMC4758254 (Nature plants, 2015).
# Columns and labels:
# AtINT4 = target: T1, AtINT4 (Arabidopsis thaliana, UniProt O23492); assay: inhibition of arsenic uptake into yeast cells, ICP-MS; type: cell-based; details: 250 μM As(III), 0-8 μg/mL myo-inositol, 24 h, 30 °C; substrate competition
# T1 sequence (O23492 1-582): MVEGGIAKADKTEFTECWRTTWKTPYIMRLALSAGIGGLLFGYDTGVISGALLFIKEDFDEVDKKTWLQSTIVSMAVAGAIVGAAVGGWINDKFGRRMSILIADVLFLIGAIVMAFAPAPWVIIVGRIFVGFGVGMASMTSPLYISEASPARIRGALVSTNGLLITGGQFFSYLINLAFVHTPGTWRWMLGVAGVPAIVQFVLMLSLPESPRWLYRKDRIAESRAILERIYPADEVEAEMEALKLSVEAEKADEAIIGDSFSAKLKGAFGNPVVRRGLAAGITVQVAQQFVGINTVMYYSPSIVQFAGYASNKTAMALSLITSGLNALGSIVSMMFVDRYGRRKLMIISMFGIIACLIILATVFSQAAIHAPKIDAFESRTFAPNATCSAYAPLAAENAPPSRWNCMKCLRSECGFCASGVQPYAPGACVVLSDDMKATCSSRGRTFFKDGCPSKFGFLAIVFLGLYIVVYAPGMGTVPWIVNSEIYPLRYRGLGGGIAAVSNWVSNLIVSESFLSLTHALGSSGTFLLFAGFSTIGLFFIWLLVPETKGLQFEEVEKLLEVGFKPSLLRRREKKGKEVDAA
# AtINT2 = target: T2, AtINT2 (Arabidopsis thaliana, UniProt Q9C757); assay: as above; type: cell-based; details: 250 μM As(III), 0-8 μg/mL myo-inositol, 24 h, 30 °C; substrate competition
# T2 sequence (Q9C757 1-580): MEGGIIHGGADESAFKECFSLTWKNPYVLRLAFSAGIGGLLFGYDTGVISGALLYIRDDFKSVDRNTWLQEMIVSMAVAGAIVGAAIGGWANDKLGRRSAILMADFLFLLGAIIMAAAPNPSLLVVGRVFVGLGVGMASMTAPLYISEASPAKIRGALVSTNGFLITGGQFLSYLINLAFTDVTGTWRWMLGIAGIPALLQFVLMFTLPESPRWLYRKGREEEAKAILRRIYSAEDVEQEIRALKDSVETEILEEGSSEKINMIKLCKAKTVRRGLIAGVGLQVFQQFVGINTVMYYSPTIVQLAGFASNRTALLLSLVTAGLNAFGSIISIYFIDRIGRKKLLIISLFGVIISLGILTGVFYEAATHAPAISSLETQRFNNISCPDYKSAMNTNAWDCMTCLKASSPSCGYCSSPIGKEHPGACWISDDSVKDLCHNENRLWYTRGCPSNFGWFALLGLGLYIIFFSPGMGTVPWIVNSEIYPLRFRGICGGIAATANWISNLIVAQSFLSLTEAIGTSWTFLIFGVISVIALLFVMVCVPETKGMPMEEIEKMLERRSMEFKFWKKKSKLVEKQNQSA
smiles,measurement,setting,value
O[C@H]1[C@H](O)[C@@H](O)[C@H](O)[C@@H](O)[C@H]1O [myo-inositol],"inhibition of arsenic uptake into yeast cells, ICP-MS",AtINT4,substrate competition inhibited arsenic accumulation in D458-1B expressing AtINT2 or AtINT4
same,"inhibition of arsenic uptake into yeast cells, ICP-MS",AtINT2,substrate competition inhibited arsenic accumulation in D458-1B expressing AtINT2 or AtINT4
